Data taken from ChEMBL document CHEMBL3714728, “Substituted benzoylamino-indan-2-carboxylic acids and related compounds” (2010).

Biological target: T1, C-X-C chemokine receptor type 5 (Homo sapiens, UniProt P32302)
T1 sequence (P32302 whole entry): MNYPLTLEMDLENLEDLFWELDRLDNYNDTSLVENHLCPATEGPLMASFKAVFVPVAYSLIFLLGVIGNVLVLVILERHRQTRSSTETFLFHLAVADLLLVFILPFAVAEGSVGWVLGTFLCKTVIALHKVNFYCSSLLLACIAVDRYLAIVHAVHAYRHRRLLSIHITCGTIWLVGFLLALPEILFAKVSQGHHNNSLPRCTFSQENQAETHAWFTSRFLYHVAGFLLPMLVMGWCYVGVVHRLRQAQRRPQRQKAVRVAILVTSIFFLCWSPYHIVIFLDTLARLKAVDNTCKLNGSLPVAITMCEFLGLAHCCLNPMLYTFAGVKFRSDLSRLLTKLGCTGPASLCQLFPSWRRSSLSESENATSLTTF
Assay: Antagonist activity against human CXCR5 expressed in RBL cells assessed as inhibition of human CXCL13-induced intracellular Ca2+ level by fluo-4/AM dye based FLIPR assay
Assay type: functional, cell-based

| SMILES | IC50 |
| --- | --- |
| Cc1cccc(C(=O)NC2(C(=O)O)Cc3ccc(C(=O)O)cc3C2)c1OC(C)C (stereo unspecified) | > 30000 nM |
| CCOc1ccc2ccccc2c1C(=O)NC1(C(=O)O)Cc2ccccc2C1 | 19600 nM |
| O=C(NC1(C(=O)O)Cc2ccccc2C1)c1cccc2c1OCCO2 | > 30000 nM |
| C/C=C/c1c(C)cccc1C(=O)NC1(C(=O)O)Cc2ccc(F)cc2C1 (stereo unspecified) | 200 nM |
| O=C(O)c1ccc2c(c1)CC(NC(=O)c1cccc3c1CCCC3)(C(=O)O)C2 (stereo unspecified) | > 30000 nM |
| Cc1cc2c(cc1C)CC(NC(=O)c1cccc(C)c1OC(C)C)(C(=O)O)C2 | 27000 nM |
| O=C(NC1(C(=O)O)Cc2ccccc2C1)c1cccc2cccnc12 | > 30000 nM |
| CCCCCc1c(C)cccc1C(=O)NC1(C(=O)O)Cc2ccccc2C1 | 2300 nM |
| CCC/C=C/c1c(C)cccc1C(=O)NC1(C(=O)O)Cc2ccccc2C1 | 446 nM |
| Cc1cccc(C(=O)NC2(C(=O)O)Cc3ccccc3C2)c1CC(C)C | 14 nM |
| Cc1cccc(C(=O)NC2(C(=O)O)CCSCC2)c1OC(C)C | 24000 nM |
| CC(C)=Cc1c(C)cccc1C(=O)NC1(C(=O)O)Cc2ccc(Cl)cc2C1 (stereo unspecified) | 9 nM |
| Cc1cccc(C(=O)NC2(C(=O)O)Cc3ccc(C(=O)O)cc3C2)c1OC1CCC1 (stereo unspecified) | > 30000 nM |
| CC(C)Oc1c(Cl)cc(Cl)cc1S(=O)(=O)NC1(C(=O)O)Cc2ccccc2C1 | 16000 nM |
| O=C(NC1(C(=O)O)Cc2ccccc2C1)c1cccc2c1CCCC2 | 675 nM |
| CCC(C)Oc1c(C)cccc1C(=O)NC1(C(=O)O)Cc2ccccc2C1 (stereo unspecified) | 1080 nM |
| CC(C)=Cc1c(C)cccc1C(=O)NC1(C(=O)O)Cc2ccccc2C1 | 33 nM |
| O=C(NC1(C(=O)O)Cc2ccccc2C1)c1cnc2ccccc2n1 | > 30000 nM |

| SMILES | IC50 |
| --- | --- |
| Cc1cccc(C(=O)NC2(C(=O)O)Cc3ccc(F)cc3C2)c1CC(C)C (stereo unspecified) | 15 nM |
| CC(C)=Cc1c(C(=O)NC2(C(=O)O)Cc3ccccc3C2)cccc1C(F)(F)F | 26 nM |
| CC/C=C(/CC)c1c(C)cccc1C(=O)NC1(C(=O)O)Cc2ccccc2C1 | 15200 nM |
| NC(=O)c1ccc2c(c1)CC(NC(=O)c1cccc3c1CCCC3)(C(=O)O)C2 (stereo unspecified) | > 30000 nM |
| Cc1cccc(C(=O)NC2(C(=O)O)Cc3c(C)sc(C)c3C2)c1OC(C)C | 17400 nM |
| O=C(NC1(C(=O)O)Cc2ccccc2C1)c1cccc2[nH]ccc12 | > 30000 nM |
| N#Cc1ccc2c(c1)CC(NC(=O)c1cccc3c1CCCC3)(C(=O)O)C2 (stereo unspecified) | 30000 nM |
| Cc1cccc(C(=O)NC2(C(=O)O)Cc3ccccc3C2)c1OC1CCC1 | 470 nM |
| O=C(NC1(C(=O)O)Cc2ccccc2C1)c1cncc2ccccc12 | > 30000 nM |
| CC(C)=Cc1c(C)cccc1C(=O)NC1(C(=O)O)Cc2ccc(F)cc2C1 (stereo unspecified) | 11 nM |
| Cc1cccc(C(=O)NC2(C(=O)O)Cc3cc(F)c(F)cc3C2)c1CC(C)C | 17 nM |
| O=C(NC1(C(=O)O)Cc2ccccc2C1)c1cccc2c1NCCC2 | > 30000 nM |
| Cc1sc(C)c2c1CC(NC(=O)c1cccc3c1CCCC3)(C(=O)O)C2 | 2850 nM |
| CC(C)=Cc1c(C)cccc1C(=O)NC1(C(=O)O)Cc2ccc(F)c(F)c2C1 (stereo unspecified) | 5 nM |
| O=C(NC1(C(=O)O)Cc2ccc(C(F)(F)F)cc2C1)c1cccc2c1CCCC2 (stereo unspecified) | 6100 nM |
| Cc1cccc(C(=O)N[C@@]2(C(=O)O)Cc3ccc(F)cc3C2)c1CC(C)C (single isomer, unassigned) | 7 nM |
| Cc1cccc(C(=O)N[C@]2(C(=O)O)Cc3ccc(F)cc3C2)c1CC(C)C (single isomer, unassigned) | 30 nM |

Second part, the compound after the results:

| IC50 | SMILES |
| --- | --- |
| 10100 nM | Cc1cccc(C(=O)NC2(C(=O)O)Cc3ccc(C#N)cc3C2)c1OC1CCC1 (stereo unspecified) |
| > 30000 nM | Cc1cccc(C(=O)NC2(C(=O)O)Cc3ccc(C(N)=O)cc3C2)c1OC1CCC1 (stereo unspecified) |
| 7800 nM | Cc1cccc(C(=O)NC2(C(=O)O)Cc3ccc(C(F)(F)F)cc3C2)c1OC1CCC1 (stereo unspecified) |
| 56 nM | Cc1cccc(C(=O)NC2(C(=O)O)Cc3ccccc3C2)c1C1=CCCC1 |
| 14800 nM | Cc1cccc(C(=O)NC2(C(=O)O)Cc3ccc(C(F)(F)F)cc3C2)c1OC(C)C (stereo unspecified) |
| 2930 nM | Cc1cccc(C(=O)NC2(C(=O)O)Cc3ccccc3C2)c1OCC1CC1 |
| 13000 nM | C=CCOc1c(Cl)cc(Cl)cc1S(=O)(=O)NC1(C(=O)O)Cc2ccccc2C1 |
| 30000 nM | O=C(NC1(C(=O)O)Cc2ccccc2C1)c1cc(F)cc2c1OCOC2 |
| 5450 nM | O=C(NC1(C(=O)O)Cc2ccccc2C1)c1cccc2ccccc12 |
| 19300 nM | CCCC#Cc1c(C)cccc1C(=O)NC1(C(=O)O)Cc2ccccc2C1 |
| 1050 nM | Cc1cccc(C(=O)NC2(C(=O)O)Cc3ccccc3C2)c1C1=CCCCC1 |
| 232 nM | C/C=C/c1c(C)cccc1C(=O)NC1(C(=O)O)Cc2ccccc2C1 |
| 47 nM | CCCc1c(C)cccc1C(=O)NC1(C(=O)O)Cc2ccc(F)cc2C1 (stereo unspecified) |
| > 30000 nM | Cc1cccc(C(=O)NC2(C(=O)O)Cc3ccc(C(N)=O)cc3C2)c1OC(C)C (stereo unspecified) |
| 3870 nM | CCCC(CC)c1c(C)cccc1C(=O)NC1(C(=O)O)Cc2ccccc2C1 (stereo unspecified) |
| 268 nM | O=C(NC1(C(=O)O)Cc2ccc(F)cc2C1)c1cc(Cl)cc(Cl)c1OC1CCC1 (stereo unspecified) |
| 533 nM | Cc1cccc(C(=O)NC2(C(=O)O)Cc3ccccc3C2)c1C1CCCC1 |
| 20500 nM | Cc1cccc(C(=O)NC2(C(=O)O)Cc3ccc(C#N)cc3C2)c1OC(C)C (stereo unspecified) |

| IC50 | SMILES |
| --- | --- |
| 15 nM | CC(C)=Cc1c(C)cccc1C(=O)NC1(C(=O)O)Cc2cc(F)c(F)cc2C1 |
| 13000 nM | O=C(NC1(C(=O)O)Cc2ccccc2C1)c1ccc(F)c2ccccc12 |
| > 30000 nM | O=C(O)C1(NS(=O)(=O)c2cccc3cccnc23)Cc2ccccc2C1 |
| 18200 nM | COc1ccc2c(c1)CC(NC(=O)c1cccc(C)c1OC(C)C)(C(=O)O)C2 (stereo unspecified) |
| 537 nM | Cc1cccc(C(=O)NC2(C(=O)O)Cc3ccc(F)cc3C2)c1OC(C)C (stereo unspecified) |
| 9500 nM | COc1ccc2c(c1)CC(NC(=O)c1cccc3c1CCCC3)(C(=O)O)C2 (stereo unspecified) |
| > 30000 nM | O=C(NC1(C(=O)O)Cc2ccccc2C1)c1cccc2cc[nH]c12 |
| 298 nM | O=C(NC1(C(=O)O)Cc2ccc(F)cc2C1)c1cccc2c1CCCC2 (stereo unspecified) |
| 380 nM | Cc1cccc(C(=O)NC2(C(=O)O)Cc3ccc(F)cc3C2)c1OC1CCC1 (stereo unspecified) |
| 38 nM | CC(C)=Cc1c(C)cccc1C(=O)NC1(C(=O)O)Cc2c(F)ccc(F)c2C1 |
| 45 nM | CCCc1c(C)cccc1C(=O)NC1(C(=O)O)Cc2cc(F)c(F)cc2C1 |
| 3650 nM | C=CCOc1c(Cl)cccc1C(=O)NC1(C(=O)O)Cc2ccccc2C1 |
| 13 nM | Cc1cccc(C(=O)NC2(C(=O)O)Cc3ccc(F)cc3C2)c1C1=CCCC1 (stereo unspecified) |
| 97 nM | Cc1cccc(C(=O)NC2(C(=O)O)Cc3ccccc3C2)c1CCC1CC1 |
| 99 nM | CCC/C=C\c1c(C)cccc1C(=O)NC1(C(=O)O)Cc2ccccc2C1 |
| 8200 nM | Cc1cccc(C(=O)NC2(C(=O)O)Cc3ccccc3C2)c1/C=C/C1CC1 |
| > 30000 nM | Cc1cccc(C(=O)N(C)C2(C(=O)O)Cc3ccccc3C2)c1OC(C)C |
| 23 nM | CCCc1c(C)cccc1C(=O)NC1(C(=O)O)Cc2ccccc2C1 |
